Reference: US20020065236A1, “CpG reduced plasmids and viral vectors” (priority 1998, published 2002)

What was measured:
BALB/c mice [1] = test: Lung histopathology after intranasal instillation; settings: 2 days post-instillation, blinded
Description: The histopathological changes within BALB/c mouse lungs following administration of either cationic lipid alone, pDNA alone, or cationic lipid:pDNA complexes were also examined. […] Mice were sacrificed 2 days post-instillation and the lungs were processed for histological examination in a blinded manner.
Lungs were fixed by inflation at 30 cm of H2O pressure with 2% paraformaldehyde and 0.2% glutaraldehyde. Representative samples were taken from each lung lobe, embedded in glycol methacrylate, sectioned and stained with hematoxylin and eosin. Histopathology on the lung was evaluated in a blinded fashion and graded subjectively using a scale of 0 to 4, with a score of 0 indicating no abnormal findings and a score of 4 reflecting severe changes with intense infiltrates See Scheule et al., Hum.

BALB/c mice [2] = test: Cytokine levels in BALF (ELISA) after intranasal instillation; settings: for cytokine levels in BALF at higher concentrations of the compound: instilled with GL-67:pCFA-CAT; for inhibition of cytokine production in the lung: without affecting gene expression
Experimental: Cytokine levels in the mouse BALF were quantitated using enzyme-linked immunosorbent assay (ELISA) kits as specified by the manufacturers. IFN-γ, TNF-α, IL1-α, IL-1β, IL-10 and IL-6 ELISA kits were from Genzyme Corporation, mKC, MIP-2 and GM-CSF ELISA kits were from R&D Systems, and Leukotriene B4 ELISA kit was from Perseptive Diagnostics.
BALB/c mice were instilled intranasally with 100 μl of complex as described. […] The animals were euthanized and their lungs were lavaged 24 h post-instillation using phosphate-buffered saline (PBS). The recovered BALF were centrifuged at 1,500 rpm for 4 min, and the resulting supernatants were removed and frozen at −80° C. for subsequent cytokine analysis. The cell pellets were resuspended in PBS for microscopic determination of cell number and cell types.
Separate groups of mice were instilled with either (m)pDNA or unmethylated pDNA alone, or vehicle, and their bronchoalveolar lavage fluids collected for analysis at 24 h post-treatment.
The animals were euthanized and their lungs were lavaged 24 h post-instillation using phosphate-buffered saline (PBS). The recovered BALF were centrifuged at 1,500 rpm for 4 min., and the resulting supernatants were removed and frozen at −80° C. for subsequent cytokine analysis.
Cytokine levels were quantitated using enzyme-linked immunosorbent assay (ELISA) kits as specified by the manufacturer (Genzyme Corporation, Framingham, MA).

mouse spleen cells [3] = test: IL-12 induction from mouse spleen cells; type: cell-based; settings: for levels of IL-12 induction by GL-67:pCFA-CAT: addition of 10 μM of chloroquine or 1 μM of quinacrine; for levels of IL-12 induction by pCFA-CAT: co-addition of 10 μM of chloroquine or 1 μM of quinacrine, 24 hours
Experimental: 6-8 week old 8ALB/c mice were sacrificed by cervical dislocation. Spleens were excised and placed in sterile PBS on ice. To prepare single cell suspensions, the spleens were placed in a tissue culture dish in PBS and crushed between the frosted edges of two sterile microscope slides. Cells were pelleted by centrifugation at 1200 rpm for 8 min., and washed 3 times in PBS. After the final wash, the cells were resuspended in RPMI medium supplemented with 25 mM HEPES buffer, 10% fetal bovine serum, 2 mM L-glutamine, and 50 μM 2-mercaptoethanol (2-ME). The resuspended cells were then plated at 6×10^6 cells/ml/well in 24-well culture plates. Supernatant were collected 24 hr after addition of oligonucleotides or plasmid DNA for the measurement of cytokine (IL-12) production.

mouse spleen cells [4] = settings: 10 μM chloroquine or 1 μM quinacrine
Experimental: Another strategy to reduce the stimulatory properties of the pDNA vector is to use specific inhibitors of 1 he CpG signaling pathway. […] These compounds were tested for their ability to inhibit the stimulatory properties of pDNA and cationic lipid-pDNA complexes in vitro and in the mouse lung.

Structure (SMILES) | lung inflammation (histopathology, score on a scale from 0 to 4) (BALB/c mice [1]) | levels of TNF-α, IFN-γ, IL-6 and murine KC (these four cytokines) in the BALF (BALB/c mice [2]; 24 h after intranasal instillation of the component alone) | contribution to the cytokine induction in the BALF (BALB/c mice [2]; with the exception of KC) | induction of IL-12 production from mouse spleen cells in vitro (mouse spleen cells [3]) | levels of IL-12 induction by GL-67:pCFA-CAT (mouse spleen cells [3]) | levels of IL-12 induction by pCFA-CAT (mouse spleen cells [3]) | effects on expression of the CAT reporter gene (mouse spleen cells [4]) | cytokine levels in BALF at higher concentrations of the compound (BALB/c mice [2]) | inhibition of cytokine production in the lung (BALB/c mice [2]) | effects on cell viability (mouse spleen cells [4])
CC(C)CCCC(C)C1CCC2C3CC=C4CC(OC(=O)N(CCCN)CCCCNCCCN)CCC4(C)C3CCC12C (stereo not shown) [GL-67] | scored slightly lower | low levels | did not contribute significantly | – | – | – | – | – | – | –
CCN(CC)CCCC(C)Nc1ccnc2cc(Cl)ccc12 (stereo not shown) [chloroquine] | – | – | – | greatly reduced | near background levels | near background levels | no discernible effects | did not further decrease | 50% | –
CCN(CC)CCCC(C)Nc1c2ccc(Cl)cc2nc2ccc(OC)cc12 (stereo not shown) [quinacrine] | – | – | – | greatly reduced | near background levels | near background levels | no discernible effects | did not further decrease | 50% | no discernible effects
